Data: US10750743B2, “Pyridazinone herbicides” (E.I. DU PONT DE NEMOURS AND COMPANY, priority 2015, dated 2020)

Key:
Assay type in all cases: in vivo
[1] = tested on: ryegrass, It. (Italian ryegrass, Lolium multiflorum); assay: Test A preemergence, directed soil spray, visual injury rating; details: 0 is no effect, 100 is complete control
Source text: (§1) Seeds of plant species selected from barnyardgrass (Echinochloa crus-galli), kochia (Kochia scoparia), ragweed (common ragweed, Ambrosia elatior), ryegrass, It. (Italian ryegrass, Lolium multiflorum), foxtail, giant (giant foxtail, Setaria faberii), and pigweed (Amaranthus retroflexus), were planted into a blend of loam soil and sand and treated preemergence with a directed soil spray using test chemicals formulated in a non-phytotoxic solvent mixture which included a surfactant.
(§2) At the same time, plants selected from these weed species and also wheat (Triticum aestivum), corn (Zea mays), blackgrass (Alopecurus myosuroides), and galium (catchweed bedstraw, Galium aparine), were planted in pots containing the same blend of loam soil and sand and treated with postemergence applications of test chemicals formulated in the same manner Plants ranged in height from 2 to 10 cm and were in the one- to two-leaf stage for the postemergence treatment. Treated plants and untreated controls were maintained in a greenhouse for approximately 10 d, after which time all treated plants were compared to untreated controls and visually evaluated for injury. Plant response ratings, summarized in Table A, are based on a 0 to 100 scale where 0 is no effect and 100 is complete control. A dash (-) response means no test result.

kochia (Kochia scoparia) [2] = assay: as above; details: 0 is no effect, 100 is complete control
Source text: as §1, §2

[3] = tested on: barnyardgrass (Echinochloa crus-galli); assay: as above; details: 0 is no effect, 100 is complete control
Source text: as §1, §2

[4] = tested on: ragweed (common ragweed, Ambrosia elatior); assay: as above; details: 0 is no effect, 100 is complete control
Source text: as §1, §2

[5] = tested on: pigweed (Amaranthus retroflexus); assay: as above; details: 0 is no effect, 100 is complete control
Source text: as §1, §2

[6] = tested on: foxtail, giant (giant foxtail, Setaria faberii); assay: as above; details: 0 is no effect, 100 is complete control
Source text: as §1, §2

[7] = tested on: ryegrass, It. (Italian ryegrass, Lolium multiflorum); assay: Test A postemergence application, visual injury rating; details: for Ryegrass, It. plant response rating: 0 to 100 scale, 0 no effect, 100 complete control
Source text: as §1, §2

kochia (Kochia scoparia) [8] = assay: as above; details: 0 to 100 scale, 0 no effect, 100 complete control
Source text: as §1, §2

[9] = tested on: blackgrass (Alopecurus myosuroides); assay: as above; details: 0 to 100 scale, 0 no effect, 100 complete control
Source text: as §1, §2

[10] = tested on: barnyardgrass (Echinochloa crus-galli); assay: as above; details: 0 to 100 scale, 0 no effect, 100 complete control
Source text: as §1, §2

corn (Zea mays) = assay: as above; details: for Corn plant response rating: 0 to 100 scale, 0 no effect, 100 complete control
Source text: as §1, §2

[11] = tested on: ragweed (common ragweed, Ambrosia elatior); assay: as above; details: for Ragweed plant response rating: 0 to 100 scale, 0 no effect, 100 complete control
Source text: as §1, §2

[12] = tested on: pigweed (Amaranthus retroflexus); assay: as above; details: for Pigweed plant response rating: 0 to 100 scale, 0 no effect, 100 complete control
Source text: as §1, §2

[13] = tested on: galium (catchweed bedstraw, Galium aparine); assay: as above; details: for Galium plant response rating: 0 to 100 scale, 0 no effect, 100 complete control
Source text: as §1, §2

[14] = tested on: foxtail, giant (giant foxtail, Setaria faberii); assay: as above; details: for Foxtail, Giant plant response rating: 0 to 100 scale, 0 no effect, 100 complete control
Source text: as §1, §2

[15] = tested on: wheat (Triticum aestivum); assay: as above; details: for Wheat plant response rating: 0 to 100 scale, 0 no effect, 100 complete control
Source text: as §1, §2

[16] = tested on: barnyardgrass (Echinochloa crus-galli); assay: Test B flooded paddy test, visual rating; details: Flood, 250 g ai/ha, applied to paddy water, rated after 13 to 15 d
Protocol: (§3) Plant species in the flooded paddy test selected from rice (Oryza sativa), sedge, umbrella (small-flower umbrella sedge, Cyperus difformis), ducksalad (Heteranthera limosa), and barnyardgrass (Echinochloa crus-galli) were grown to the 2-leaf stage for testing. At time of treatment, test pots were flooded to 3 cm above the soil surface, treated by application of test compounds directly to the paddy water, and then maintained at that water depth for the duration of the test. Treated plants and controls were maintained in a greenhouse for 13 to 15 d, after which time all species were compared to controls and visually evaluated. Plant response ratings, summarized in Table B, are based on a scale of 0 to 100 where 0 is no effect and 100 is complete control. A dash (-) response means no test result.

rice (Oryza sativa) = assay: Test B flooded paddy test, visual rating; details: Flood, 250 g ai/ha, applied to paddy water, rated after 13 to 15 d
Protocol: as §3

[17] = tested on: sedge, umbrella (small-flower umbrella sedge, Cyperus difformis); assay: Test B flooded paddy test, visual rating; details: Flood, 250 g ai/ha, applied to paddy water, rated after 13 to 15 d
Protocol: as §3

[18] = tested on: ducksalad (Heteranthera limosa); assay: Test B flooded paddy test, visual rating; details: Flood, 250 g ai/ha, applied to paddy water, rated after 13 to 15 d
Protocol: as §3

[19] = 31 g ai/ha, 0 is no effect, 100 is complete control

Structure (SMILES) | Plant response rating (0 to 100 scale), Ryegrass, It. ([1]; 125 g ai/ha) | Plant response rating (0 to 100 scale), Ryegrass, It. ([1]; 500 g ai/ha) | Plant response rating (0 to 100 scale), Kochia (kochia (Kochia scoparia) [2]; 125 g ai/ha) | Plant response rating (0 to 100 scale), Barnyardgrass ([3]; 125 g ai/ha) | Plant response rating (0 to 100 scale), Ragweed ([4]; 125 g ai/ha) | Plant response rating (0 to 100 scale), Pigweed ([5]; 125 g ai/ha) | Plant response rating (0 to 100 scale), Foxtail, Giant ([6]; 125 g ai/ha) | Ryegrass, It. plant response rating ([7]; 125 g ai/ha) | Kochia plant response rating (kochia (Kochia scoparia) [8]; 125 g ai/ha) | Blackgrass plant response rating ([9]; 125 g ai/ha) | Barnyardgrass plant response rating ([10]; 125 g ai/ha) | Corn plant response rating (corn (Zea mays); 125 g ai/ha) | Ragweed plant response rating ([11]; 125 g ai/ha) | Pigweed plant response rating ([12]; 125 g ai/ha) | Galium plant response rating ([13]; 125 g ai/ha) | Foxtail, Giant plant response rating ([14]; 125 g ai/ha) | Wheat plant response rating ([15]; 125 g ai/ha) | Barnyardgrass plant response rating (0 to 100 scale, 0 is no effect, 100 is complete control) [16] | Rice plant response rating (0 to 100 scale, 0 is no effect, 100 is complete control) (rice (Oryza sativa)) | Ducksalad plant response rating (0 to 100 scale, 0 is no effect, 100 is complete control) [18] | also measured
Cc1nn(C)c(=O)c(-c2cccc3scnc23)c1O [Compound 1] | 0 | 70 | 0 | 0 | 0 | 0 | 0 | 0 | 0 | 0 | 0 | 0 | 0 | 0 | 0 | 0 | 0 | 0 | 0 | 0 | Plant response rating (0 to 100 scale), Kochia (kochia (Kochia scoparia) [2]; 500 g ai/ha): 0; Plant response rating (0 to 100 scale), Barnyardgrass ([3]; 500 g ai/ha): 20; Plant response rating (0 to 100 scale), Ragweed ([4]; 500 g ai/ha): 20; Plant response rating (0 to 100 scale), Pigweed ([5]; 500 g ai/ha): 0; Plant response rating (0 to 100 scale), Foxtail, Giant ([6]; 500 g ai/ha): 20; Ryegrass, It. plant response rating ([7]; 500 g ai/ha): 40; Kochia plant response rating (kochia (Kochia scoparia) [8]; 500 g ai/ha): 0; Blackgrass plant response rating ([9]; 500 g ai/ha): 10; Barnyardgrass plant response rating ([10]; 500 g ai/ha): 0; Corn plant response rating (corn (Zea mays); 500 g ai/ha): 0; Ragweed plant response rating ([11]; 500 g ai/ha): 10; Pigweed plant response rating ([12]; 500 g ai/ha): 10; Galium plant response rating ([13]; 500 g ai/ha): 30; Foxtail, Giant plant response rating ([14]; 500 g ai/ha): 0; Wheat plant response rating ([15]; 500 g ai/ha): 0; Sedge, Umbrella plant response rating (0 to 100 scale, 0 is no effect, 100 is complete control) [17]: 0
Cc1nn(C)c(=O)c(-c2c(C)sc3ncccc23)c1O [Compound 14] | 10 | 20 | 0 | 0 | 0 | 0 | 0 | 0 | 0 | 0 | 0 | 0 | 0 | 0 | 0 | 0 | 0 | – | – | – | Plant response rating (0 to 100 scale), Kochia (kochia (Kochia scoparia) [2]; 500 g ai/ha): 0; Plant response rating (0 to 100 scale), Barnyardgrass ([3]; 500 g ai/ha): 0; Plant response rating (0 to 100 scale), Ragweed ([4]; 500 g ai/ha): 0; Plant response rating (0 to 100 scale), Pigweed ([5]; 500 g ai/ha): 0; Plant response rating (0 to 100 scale), Foxtail, Giant ([6]; 500 g ai/ha): 0; Ryegrass, It. plant response rating ([7]; 500 g ai/ha): 20; Kochia plant response rating (kochia (Kochia scoparia) [8]; 500 g ai/ha): 0; Blackgrass plant response rating ([9]; 500 g ai/ha): 0; Barnyardgrass plant response rating ([10]; 500 g ai/ha): 0; Corn plant response rating (corn (Zea mays); 500 g ai/ha): 0; Ragweed plant response rating ([11]; 500 g ai/ha): 0; Pigweed plant response rating ([12]; 500 g ai/ha): 0; Galium plant response rating ([13]; 500 g ai/ha): 40; Foxtail, Giant plant response rating ([14]; 500 g ai/ha): 0; Wheat plant response rating ([15]; 500 g ai/ha): 0
CCC(=O)Oc1c(C)nn(C)c(=O)c1-c1ccc(Cl)c2sccc12 [Compound 58] | 50 | – | 70 | 0 | 80 | 0 | 0 | 10 | 60 | 0 | 0 | 0 | 0 | 20 | 90 | 0 | 0 | 0 | 0 | 0 | Plant response rating (0 to 100 scale), Ryegrass, It. ([1]; 31 g ai/ha): 0; Plant response rating (0 to 100 scale), Kochia (kochia (Kochia scoparia) [2]; 31 g ai/ha): 0; Plant response rating (0 to 100 scale), Barnyardgrass ([3]; 31 g ai/ha): 0; Plant response rating (0 to 100 scale), Ragweed ([4]; 31 g ai/ha): 0; Plant response rating (0 to 100 scale), Pigweed ([5]; 31 g ai/ha): 20; Plant response rating (0 to 100 scale), Foxtail, Giant ([6]; 31 g ai/ha): 20; Ryegrass, It. plant response rating ([7]; 31 g ai/ha): 0; Kochia plant response rating (kochia (Kochia scoparia) [8]; 31 g ai/ha): 0; Blackgrass plant response rating ([9]; 31 g ai/ha): 0; Barnyardgrass plant response rating ([10]; 31 g ai/ha): 0; Corn plant response rating (corn (Zea mays); 31 g ai/ha): 0; Ragweed plant response rating ([11]; 31 g ai/ha): 0; Pigweed plant response rating ([12]; 31 g ai/ha): 0; Galium plant response rating ([13]; 31 g ai/ha): 20; Foxtail, Giant plant response rating ([14]; 31 g ai/ha): 0; Wheat plant response rating ([15]; 31 g ai/ha): 0
CC(=O)Oc1c(Cl)nn(C)c(=O)c1-c1cccc2cccnc12 [Compound 71] | 80 | – | 30 | 20 | 10 | 60 | 10 | 90 | – | 70 | 40 | 0 | 70 | 50 | 80 | 30 | 30 | 0 | 0 | 0 | Plant response rating (0 to 100 scale), Ryegrass, It. ([1]; 31 g ai/ha): 20; Plant response rating (0 to 100 scale), Kochia (kochia (Kochia scoparia) [2]; 31 g ai/ha): 0; Plant response rating (0 to 100 scale), Barnyardgrass ([3]; 31 g ai/ha): 0; Plant response rating (0 to 100 scale), Ragweed ([4]; 31 g ai/ha): 0; Plant response rating (0 to 100 scale), Pigweed ([5]; 31 g ai/ha): 0; Plant response rating (0 to 100 scale), Foxtail, Giant ([6]; 31 g ai/ha): 0; Plant response rating (0 to 100 scale), Ryegrass, It. [7, 19]: 50; Blackgrass plant response rating ([9]; 31 g ai/ha): 10; Barnyardgrass plant response rating ([10]; 31 g ai/ha): 10; Plant response rating (0 to 100 scale), Corn (corn (Zea mays); [19]): 0; Plant response rating (0 to 100 scale), Ragweed [11, 19]: 30; Plant response rating (0 to 100 scale), Pigweed [12, 19]: 20; Plant response rating (0 to 100 scale), Galium [13, 19]: 60; Plant response rating (0 to 100 scale), Foxtail, Giant [14, 19]: 10; Plant response rating (0 to 100 scale), Wheat [15, 19]: 0; Sedge, Umbrella plant response rating (0 to 100 scale, 0 is no effect, 100 is complete control) [17]: 0
